Legend:
Type in all cases: cell-based, human
[1] = test system: SLC16-dependent pyruvate transport; test: Pyronic FRET pyruvate transport assay in 293T cells; settings: 293T cells pre-incubated with inhibitor; 0.4 mM pyruvate, pH 7.4
Source text: To obtain “proof of concept” for monocarboxylate transport by SLC16A11, pyruvate was focused on as the metabolite transported by all four SLC16 category I proteins, whose real-time transport in mammalian cells can be readily studied by the pyruvate FRET sensor, pyronic. 293T cells were co-transfected with pyronic and either empty vector control or SLC16A11-V5, which increases SLC16A11 levels without affecting other category I family members (FIG. 3M). Cells were perfused in physiological pH 7.4 Ringer's solution and 0.4 mM pyruvate was added at the indicated time point (FIG. 3D), resulting in an increase of the fluorescence signal, indicative of pyruvate uptake. […] Thus, this is consistent with the increase in fluorescence resulting from SLC16-dependent pyruvate transport.
Cells were transferred onto glass cover slips in 60 mm tissue culture dishes 72 hr prior to the experiment. […] Cytoplasmic pH changes, indicative of H^+ transport, were determined in cells loaded with 1 μM BCECF-AM (Rink, T. J. et al., 1982, J Cell Biol, 95:189-196), a pH sensitive dye. […] Rates of proton influx and efflux were calculated as the slopes immediately following addition and withdrawal of pyruvate, after correcting for baseline drift. Baseline drift due to fluorescence bleaching is calculated during the initial 50 seconds of each trace prior to addition of pyruvate. […]

SLC16A1 [2] = test: Compound treatment, SLC16A1 expression by ddPCR in SNU761 cells; settings: 10 μM for 24 hours
Method: (§1) FIGS. 14A-14D provide graphs showing that mTOR inhibitors increase SLC16A11, but not SLC16A1 transcript levels. […] SLC16A11 (FIGS. 14A and 14B) and SLC16A1 (FIGS. 14C and 14D) expression was then assessed using droplet digital PCR (ddPCR). Bar plots depict relative fold-changes with respect to DMSO and error bars and standard deviations. Expression is normalized to housekeeping genes TBP or HPRT1.
(§2) A small number of the compounds that made the strongest positive connections to the SLC16A11 gene expression signature were selected and tested. […] Methotrexate was also included, which had been annotated as a dihydrofolate reductase inhibitor. SNU761 cells (derived from a human hepatocellular carcinoma) and NCIH716 cells (derived from a human cecum adenocarcinoma), which both express SLC16A11, were treated with the compounds. […]
(§3) RNA was DNase treated and converted into cDNA using the High-Capacity RNA-to-cDNA kit (Thermo Fisher Scientific). The following FAM-labeled TaqMan Real-Time PCR assays (Thermo Fisher Scientific) were used to quantify gene expression: SLC16A11 (Hs00601062_g1), SLC16A13 (Hs00416832_m1), SLC16A1 (Hs01560299_m1). […] Droplets were generated and analyzed using a QX200 Droplet Generator and Reader system (BioRad). Data was extracted using QuantaSoft (BioRad) and analyzed using Microsoft Excel.

SLC16A1 [3] = test: Compound treatment, SLC16A1 expression by ddPCR in NCIH716 cells; settings: 10 μM for 24 hours
Method: as §1, §2, §3

SLC16A11 [4] = test: Compound treatment, SLC16A11 expression by ddPCR in SNU761 cells; settings: SNU761 cells; for SLC16A11 transcript levels, compound treated compared to DMSO treated cells: same concentrations and treatment times as LINCS, ddPCR
Method: (§4) A small number of the compounds that made the strongest positive connections to the SLC16A11 gene expression signature were selected and tested. […] Methotrexate was also included, which had been annotated as a dihydrofolate reductase inhibitor. SNU761 cells (derived from a human hepatocellular carcinoma) and NCIH716 cells (derived from a human cecum adenocarcinoma), which both express SLC16A11, were treated with the compounds. The same compound concentrations and treatment times were used as in the LINCS dataset experiments. […] For normalization, a different housekeeper gene, HPRT1, was used and obtained similar results with the mTOR inhibitors (FIGS. 14A and 14B).
From the total list of compounds, 59 readily available compounds were selected from the 79 compounds with the largest connectivity scores to the query signature and 20 middle compounds with connectivity scores centered on 0 (FIG. 15A) and then treated SNU761 cells at the same doses and treatment times as were used in the LINCS dataset. It was expected that the top compounds would be enriched for compounds that increased SLC16A11 expression. […] The results were aligned with the expectations (FIG. 15B). Hierarchical clustering of the SLC16 expression profiles generated by the compound treatments are shown by the heat map in FIG. 15C.
(§5) SNU761 (human hepatocellular carcinoma) and NCIH716 (human cecum adenocarcinoma) were cultured in RPMI Medium 1640 supplemented with 10% Fetal Bovine Serum (FBS), 100 μg/ml Streptomycin and 100 U/ml Penicillin. Cells were grown in a humidified CO2 incubator, at 37° C.
(§6) For the unbiased approach taken to investigate the compounds that connected to the SLC16A11 gene expression signature, compounds were obtained from compound management at the Broad Institute.
(§7) SNU761 and NCIH716 cells were plated into 96 well plates at a density of 20,000 cells per well. Hepatocytes were plated into collagen coated 96 well plates (Corning, 354408) at a density of 50,000 cells per well. After 24 hours, cells were treated with compounds at a final concentration of 10 μM or vehicle control for the appropriate amount of time.
At the time of collection, cells in 96 well plates were lysed by directly adding 50 μL of RLT buffer (Qiagen). 75 μL of AMPure XP beads, diluted by a factor of 5 in polyethylene glycol, were then added to bind nucleic acids. One wash with polyethylene glycol was then performed. DNase treatment (Qiagen) was carried out according to the manufacturer's protocol in a final volume of 50 μL. 100 μL of polyethylene glycol was added after the DNase treatment to crowd nucleic acids back onto the beads. Two washes with 80% ethanol were performed and residual ethanol was removed. RNA was then eluted in water.
RNA was DNase treated and converted into cDNA using the High-Capacity RNA-to-cDNA kit (Thermo Fisher Scientific). The following FAM-labeled TaqMan Real-Time PCR assays (Thermo Fisher Scientific) were used to quantify gene expression: SLC16A11 (Hs00601062_g1), SLC16A13 (Hs00416832_m1), SLC16A1 (Hs01560299_m1). The VIC-labeled TaqMan Real-Time assays TBP (Hs00427620_m1) or HPRT1 (Hs02800695_m1) were used for normalization. Droplets were generated and analyzed using a QX200 Droplet Generator and Reader system (BioRad). Data was extracted using QuantaSoft (BioRad) and analyzed using Microsoft Excel.

SLC16A11 (A11) = test: ddPCR based screening assay for modulators of SLC16A11 expression (Z′); settings: SNU 761 cells; compound as positive control
Source text: As detailed herein above, SLC16A11 (A11) belongs to a family of monocarboxylate transporters. Expression of A11 was studied in SNU 761 cell lines. These liver cancer cells are ideal for studying SLC16A11 expression because A11 is expressed in higher quantity in liver cells, although expression of the gene in all tissues is extremely low. The 5 SNP risk haplotype causes lowered expression and interferes with protein-protein interactions between A11 and a cofactor protein, indicating loss of function. Therefore, increasing A11 expression in individuals with the risk haplotype is likely beneficial.
The quality of an assay can be quantified by Z′, a measure of how well the assay can differentiate between the positive and negative controls. Using the formula: […]
First the cells were treated with inhibitor compounds, their RNA was extracted, and that RNA was used as a template to create DNA. Then, the DNA was quantified using droplet digital PCR (ddPCR), analyzed and quantified using QuantaSoft™ (BioRad). […]
From the QuantaSoft scoring of each droplet, the means and standard deviations of SLC16A11 expression levels was determined in response to compound treatment. […] Points in light gray had the gene of interest and were scored as positive (FIG. 17C). SLC16A11 was scored in the graph. […]

SLC16A11 [5] = test: Compound treatment, SLC16A11 expression by ddPCR in NCIH716 cells; settings: same concentrations and treatment times as LINCS
Method: as §4, §5, §6, §7
At the time of collection, cells in 96 well plates were lysed by directly adding 50 μL of RLT buffer (Qiagen). […]
as §3

SMILES | pyronic fluorescence signal (pyruvate uptake) [1] | SLC16A1 expression with respect to DMSO (SLC16A1 [2]) | SLC16A1 expression with respect to DMSO (SLC16A1 [3]) | SLC16A11 transcript levels, compound treated compared to DMSO treated cells (SLC16A11 [4]) | avg_fc (SLC16A11 expression, compound treated vs DMSO treated cells) (SLC16A11 [4]; same doses and treatment times as in the LINCS dataset) | increase in SLC16A11 expression, compound treated compared to DMSO treated cells (SLC16A11 [4]; unbiased test of 59 top and 20 middle LINCS compounds, LINCS doses and times) [fold] | A11 expression in manual ddPCR assay (SLC16A11 (A11)) | SLC16A11 transcript levels, compound treated compared to DMSO treated cells (SLC16A11 [5])
Cc1n[nH]c(C)c1Cc1sc2c(c1C(=O)N1C[C@H](O)CO1)c(=O)n(C)c(=O)n2CC(C)C [AR-C155858] | completely diminished | – | – | – | – | – | – | –
COc1ccc(-c2ccc3c(N4CCOCC4)nc(N4C[C@@H](C)O[C@@H](C)C4)nc3n2)cc1CO [KU-0063794, [5-[2-(2,6-dimethylmorpholin-4-yl)-4-morpholin-4-ylpyrido[2,3-d]pyrimidin-7-yl]-2-methoxyphenyl]methanol] | – | slight decrease | slight decrease | about 3 fold | 4.009 | ~4 | increased | about 3 fold
CN(Cc1cnc2nc(N)nc(N)c2n1)c1ccc(C(=O)N[C@@H](CCC(=O)O)C(=O)O)cc1 [methotrexate, reference compound] | – | – | – | did not alter | – | – | – | did not alter
